ChEMBL document CHEMBL3885861, “Open TG-GATES”

Organism: Rattus norvegicus
Assay: Open TG-GATES - Regimen: Daily Repeat
Format: toxicity, organism-based, Sprague-Dawley
Design: regimen Daily Repeat, gender Male, age 6 weeks
Conditions: in vivo, po, 0 mg/kg, route gavage, dose level Control; for APTT / Bas / Eos / Fbg / Hb / Ht / Lym / MCH / MCHC / MCV / Mono / Neu / PT / Plat / RBC / Ret / WBC: tissue Blood
[1] = 72 h, tissue Kidney, time 3 day
[2] = 72 h, tissue Plasma, time 3 day

For `O=C(O)c1cc(/N=N/c2ccc(S(=O)(=O)Nc3ccccn3)cc2)ccc1O` [SULFASALAZINE], the TERMINAL_BW (72 h, time 3 day) was 237.4 g, the APTT (72 h, time 3 day) was 18.3 s and the Bas (72 h, time 3 day) was 0%. For the same compound, the Eos (72 h, time 3 day) was 1%, the Fbg (72 h, time 3 day) was 245.4 mg/dL and the Hb (72 h, time 3 day) was 13.3 g/dL. It also gave a Ht (72 h, time 3 day) of 38.5%, a Lym (72 h, time 3 day) of 78.2% and an MCH (72 h, time 3 day) of 22 pg. For the same compound, the MCHC (72 h, time 3 day) was 34.7%, the MCV (72 h, time 3 day) was 63.5 fL and the Mono (72 h, time 3 day) was 3%. For the same compound, the Neu (72 h, time 3 day) was 16.8%, the PT (72 h, time 3 day) was 12.4 s and the Plat (72 h, time 3 day) was 125.9 x10_4/uL. For the same compound, the RBC (72 h, time 3 day) was 607.8 x10_4/ul, the Ret (72 h, time 3 day) was 6.3% and the WBC (72 h, time 3 day) was 93.4 x10_2/uL. The KIDNEY_L [1] was 1 g, the KIDNEY_R [1] was 1 g and the KIDNEY_TOTAL [1] was 2 g. It also gave an LIVER (72 h, tissue Liver, time 3 day) of 11.2 g, an A/G [2] of 1.4 and an ALP [2] of 938.8 IU/L. It also gave an ALT [2] of 39.8 IU/L, an AST [2] of 74.2 IU/L and a BUN [2] of 16.6 mg/dL. For the same compound, the CRE [2] was 0.4 mg/dL, the Ca [2] was 11 mg/dL and the Cl [2] was 102.6 meq/L. It also gave a DBIL [2] of 0.1 mg/dL, a GLC [2] of 207.4 mg/dL and an IP [2] of 7.3 mg/dL. For the same compound, the K [2] was 4 meq/L, the LDH [2] was 226.6 IU/L and the Na [2] was 140.6 meq/L. It also gave a PL [2] of 157 mg/dL, an RALB [2] of 3.4 g/dL and a TBIL [2] of 0.2 mg/dL. It also gave a TC [2] of 75.6 mg/dL, a TG [2] of 104 mg/dL and a TP [2] of 5.7 g/dL. The gamma-GTP [2] was 1.2 IU/L, the TERMINAL_BW ([…], time 7 day) was 263.5 g and the TERMINAL_BW ([…], time 14 day) was 308.2 g. It also gave a TERMINAL_BW ([…], time 28 day) of 377.2 g, an APTT ([…], time 7 day) of 19.2 s and a Bas ([…], time 7 day) of 0%. The Eos ([…], time 7 day) was 1%, the Fbg ([…], time 7 day) was 223.4 mg/dL and the Hb ([…], time 7 day) was 14.1 g/dL. The Ht ([…], time 7 day) was 41.1%, the Lym ([…], time 7 day) was 81.6% and the MCH ([…], time 7 day) was 21.5 pg. It also gave an MCHC ([…], time 7 day) of 34.2%, an MCV ([…], time 7 day) of 62.8 fL and a Mono ([…], time 7 day) of 2.6%. It also gave a Neu ([…], time 7 day) of 14.2%, a PT ([…], time 7 day) of 12.3 s and a Plat ([…], time 7 day) of 129.3 x10_4/uL. The RBC ([…], time 7 day) was 655 x10_4/ul, the Ret ([…], time 7 day) was 5.5% and the WBC ([…], time 7 day) was 126 x10_2/uL. For the same compound, the APTT ([…], time 14 day) was 19.7 s, the Bas ([…], time 14 day) was 0% and the Eos ([…], time 14 day) was 1%. It also gave a Fbg ([…], time 14 day) of 229.4 mg/dL, a Hb ([…], time 14 day) of 14.7 g/dL and a Ht ([…], time 14 day) of 41.7%. The Lym ([…], time 14 day) was 78.4%, the MCH ([…], time 14 day) was 20.9 pg and the MCHC ([…], time 14 day) was 35.3%. It also gave an MCV ([…], time 14 day) of 59.2 fL, a Mono ([…], time 14 day) of 2.4% and a Neu ([…], time 14 day) of 16.8%. It also gave a PT ([…], time 14 day) of 12.2 s, a Plat ([…], time 14 day) of 115.1 x10_4/uL and an RBC ([…], time 14 day) of 703.6 x10_4/ul. The Ret ([…], time 14 day) was 3.9%, the WBC ([…], time 14 day) was 92.7 x10_2/uL and the APTT ([…], time 28 day) was 20.6 s. It also gave a Bas ([…], time 28 day) of 0%, an Eos ([…], time 28 day) of 0.8% and a Fbg ([…], time 28 day) of 217.8 mg/dL. For the same compound, the Hb ([…], time 28 day) was 15.6 g/dL and the Ht ([…], time 28 day) was 43.1%.
